From patent publication US20110318426A1, “ANTIBACTERIAL AGENT AND METHOD OF USING THE SAME” (OSAKA MUNICIPAL TECHNICAL RESEARCH INSTITUTE, priority 2009, published 2011)

Legend:
Type in all cases: cell-based
[1] = test system: Pseudomonas aeruginosa (IAM11514); test: MIC determination test (growth by absorbance at 620 nm)
Procedure: (§1) Then, the suspensions were centrifuged (5800×g, 30 min), whereby supernatants were obtained.
(§2) In each of the obtained LB culture media containing the antibacterial agents, 1 μL of Escherichia coli (IF03972), Staphyloccocus aureus (IAM112082), Pseudomonas aeruginosa (IAM11514), or Bacillus subtilis (IFO3215), which are microorganisms generally used in the evaluation of antibacterial properties, was inoculated and cultured at 27° C. for 5 days. Microplates (96-well microplates, available Falcon) were used for the culturing of the microorganisms, and the growth of the microorganisms was checked by determination of absorbance at 620 nm with a microplate reader (Multisckan Ascent available from Labsystems). As the microorganisms to be inoculated, those prepared as follows were used: microorganisms of each type were cultured under agitation at 27° C. for 18 hours in a 5 mL of an ordinary bouillon culture medium (available from Eiken Chemical Co., Ltd.), then, 1 mL of the same was sampled and centrifuged at 10000 rpm for 5 minutes, sediments were suspended in 1 ml of a 0.85% saline solution, and the suspension was diluted to 100 times.
as §1
(§3) In each of the obtained LB culture media containing the antibacterial agents, 1 μL of Staphyloccocus aureus or Bacillus subtilis was inoculated and cultured at 27° C. for 5 days. Microplates (96-well microplates, available Falcon) were used for the culturing of the microorganisms, and the growth of the microorganisms was checked by determination of absorbance at 620 nm with a microplate reader (Multisckan Ascent available from Labsystems). As the microorganisms to be inoculated, those prepared as follows were used: microorganisms of each type were cultured under agitation at 27° C. for 18 hours in a 5 mL of an ordinary bouillon culture medium (available from Eiken Chemical Co., Ltd.), then, 1 mL of the same was sampled and centrifuged at 10000 rpm for 5 minutes, sediments were suspended in 1 ml of a 0.85% saline solution, and the suspension was further diluted to 100 times.
as §1

[2] = test system: Staphyloccocus aureus (IAM112082); test: as above
Procedure: as §1, §2, §1, §3, §1

[3] = test system: Bacillus subtilis (IFO3215); test: as above
Procedure: as §1, §2, §1, §3, §1

[4] = test system: Escherichia coli (IF03972); test: as above
Procedure: as §1, §2, §1, §3, §1

Escherichia coli = test: Bactericidal effect determination test (viable count, pour plate method); conditions: for count of viable Escherichia coli: detection limit
Procedure: as §1
(§4) An Escherichia coli suspension, 20 μL, was added to each of the obtained LB culture media containing the antibacterial agents, whereby liquids for use in the bactericidal effect determination test were obtained. The liquids were sampled, 50 μL each, at the start, one hour later, three hours later, and 24 hours later, and each sample was added to 4.95 mL of a LP diluent. Each resultant was diluted at four steps, ten times each, and the count of viable bacteria in 1 mL of each diluted liquid was determined by the pour plate method. The Escherichia coli suspension used was a suspension obtained by culturing Escherichia coli under agitation at 27° C. for 18 hours in a 5 mL of an ordinary bouillon culture medium (available from Eiken Chemical Co., Ltd.), then, sampling 1 mL of the same and centrifuging the sample at 10000 rpm for 5 minutes, thereafter, suspending sediments in 1 ml of a 0.85% saline solution, and diluting the same to 10 times.
The suspension was agitated at 30° C. for 18 hours. Then, the suspension was centrifuged (5800×g, 30 min), whereby a supernatant, i.e., an LB culture medium containing an antibacterial agent, was prepared.
as §4, with “to” for “to each of”, “medium” for “media”, “agent,” for “agents,”, “liquid was” for “liquids were”, “start, 0.25 hour later,” for “start,”, “eight” for “24”

O.O.O.O.O.O=S(=O)([O-])[O-].[Cu+2] [copper ions, copper sulfate pentahydrate]
antibacterial property when phosphorus-adsorbing material was mixed [1]: did not improve | antibacterial property when phosphorus-adsorbing material was mixed [2]: improved | antibacterial property when phosphorus-adsorbing material was mixed [3]: improved | antibacterial property when phosphorus-adsorbing material was mixed [4]: did not improve

O=[N+]([O-])[O-].[Ag+] [silver ions, silver nitrate]
viable Escherichia coli observed (Escherichia coli; silver ions 1 mg/L, 1% (W/V) of allophane): only few Escherichia coli were observed | count of viable Escherichia coli (Escherichia coli; silver ions 1 mg/L, 4% (W/V) of regenerated collagen powder): < 1000 cfu/ml | count of viable Escherichia coli (Escherichia coli; silver ions 1 mg/L, 4% or more of allophane): < 1000 cfu/ml | Count of viable bacteria (Escherichia coli; silver ions 1 mg/L, allophane 0% (W/V), time 0 h): 10,800,000 cfu/mL | Count of viable bacteria (Escherichia coli; silver ions 1 mg/L, allophane 0% (W/V), time 1 h): 14,900,000 cfu/mL | Count of viable bacteria (Escherichia coli; silver ions 1 mg/L, allophane 0% (W/V), time 3 h): 3,930,000 cfu/mL | Count of viable bacteria (Escherichia coli; silver ions 1 mg/L, allophane 0% (W/V), time 24 h): 95,000,000 cfu/mL | Count of viable bacteria (Escherichia coli; silver ions 1 mg/L, allophane 1% (W/V), time 0 h): 10,800,000 cfu/mL | Count of viable bacteria (Escherichia coli; silver ions 1 mg/L, allophane 1% (W/V), time 1 h): 52,000 cfu/mL | Count of viable bacteria (Escherichia coli; silver ions 1 mg/L, allophane 1% (W/V), time 3 h): 3,500 cfu/mL | Count of viable bacteria (Escherichia coli; silver ions 1 mg/L, allophane 1% (W/V), time 24 h): 2,600 cfu/mL | Count of viable bacteria (Escherichia coli; silver ions 1 mg/L, allophane 4% (W/V), time 0 h): 10,800,000 cfu/mL | Count of viable bacteria (Escherichia coli; silver ions 1 mg/L, allophane 4% (W/V), time 1 h): 1,100 cfu/mL | Count of viable bacteria (Escherichia coli; silver ions 1 mg/L, allophane 4% (W/V), time 3 h): 1,000 or less cfu/mL | Count of viable bacteria (Escherichia coli; silver ions 1 mg/L, allophane 4% (W/V), time 24 h): 1,000 or less cfu/mL | Count of viable bacteria (Escherichia coli; silver ions 1 mg/L, allophane 8% (W/V), time 0 h): 10,800,000 cfu/mL | Count of viable bacteria (Escherichia coli; silver ions 1 mg/L, allophane 8% (W/V), time 1 h): 1,000 or less cfu/mL | Count of viable bacteria (Escherichia coli; silver ions 1 mg/L, allophane 8% (W/V), time 3 h): 1,000 or less cfu/mL | Count of viable bacteria (Escherichia coli; silver ions 1 mg/L, allophane 8% (W/V), time 24 h): 1,000 or less cfu/mL | Count of viable bacteria (Escherichia coli; silver ions 1 mg/L, regenerated collagen powder 0% (W/V), time 1 h): 6.2 × 10^7 cfu/mL | Count of viable bacteria (Escherichia coli; silver ions 1 mg/L, regenerated collagen powder 0% (W/V), time 3 h): 6.7 × 10^7 cfu/mL | Count of viable bacteria (Escherichia coli; silver ions 1 mg/L, regenerated collagen powder 0% (W/V), time 8 h): 2.4 × 10^7 cfu/mL | Count of viable bacteria (Escherichia coli; silver ions 1 mg/L, regenerated collagen powder 0% (W/V), time […]): 8.1 × 10^7 cfu/mL | Count of viable bacteria (Escherichia coli; silver ions 1 mg/L, regenerated collagen powder 4% (W/V), time 1 h): 9.9 × 10^6 cfu/mL | Count of viable bacteria (Escherichia coli; silver ions 1 mg/L, regenerated collagen powder 4% (W/V), time 3 h): 1.4 × 10^5 cfu/mL | Count of viable bacteria (Escherichia coli; silver ions 1 mg/L, regenerated collagen powder 4% (W/V), time 8 h): ≤ 1.0 × 10^3 cfu/mL | Count of viable bacteria (Escherichia coli; silver ions 1 mg/L, regenerated collagen powder 4% (W/V), time […]): 4.7 × 10^4 cfu/mL | count of viable Escherichia coli (Escherichia coli; silver ions 5 mg/L, 1% (W/V) or more of allophane): < 1000 cfu/ml | Count of viable bacteria (Escherichia coli; silver ions 5 mg/L, allophane 0% (W/V), last time point (24 h, time cell misprinted)): 1000 or less cfu/mL | Count of viable bacteria (Escherichia coli; silver ions 5 mg/L, allophane 0% (W/V), time 0 h): 10,800,000 cfu/mL | Count of viable bacteria (Escherichia coli; silver ions 5 mg/L, allophane 0% (W/V), time 1 h): 6,000,000 cfu/mL | Count of viable bacteria (Escherichia coli; silver ions 5 mg/L, allophane 0% (W/V), time 3 h): 29,000 cfu/mL | Count of viable bacteria (Escherichia coli; silver ions 5 mg/L, allophane 1% (W/V), last time point (24 h, time cell misprinted)): 1,000 or less cfu/mL | Count of viable bacteria (Escherichia coli; silver ions 5 mg/L, allophane 1% (W/V), time 0 h): 10,800,000 cfu/mL | Count of viable bacteria (Escherichia coli; silver ions 5 mg/L, allophane 1% (W/V), time 1 h): 1,000 or less cfu/mL | Count of viable bacteria (Escherichia coli; silver ions 5 mg/L, allophane 1% (W/V), time 3 h): 1,000 or less cfu/mL | Count of viable bacteria (Escherichia coli; silver ions 5 mg/L, allophane 4% (W/V), last time point (24 h, time cell misprinted)): 1,000 or less cfu/mL | Count of viable bacteria (Escherichia coli; silver ions 5 mg/L, allophane 4% (W/V), time 0 h): 10,800,000 cfu/mL | Count of viable bacteria (Escherichia coli; silver ions 5 mg/L, allophane 4% (W/V), time 1 h): 1,000 or less cfu/mL | Count of viable bacteria (Escherichia coli; silver ions 5 mg/L, allophane 4% (W/V), time 3 h): 1,000 or less cfu/mL | Count of viable bacteria (Escherichia coli; silver ions 5 mg/L, allophane 8% (W/V), last time point (24 h, time cell misprinted)): 1,000 or less cfu/mL | Count of viable bacteria (Escherichia coli; silver ions 5 mg/L, allophane 8% (W/V), time 0 h): 10,800,000 cfu/mL | Count of viable bacteria (Escherichia coli; silver ions 5 mg/L, allophane 8% (W/V), time 1 h): 1,000 or less cfu/mL | Count of viable bacteria (Escherichia coli; silver ions 5 mg/L, allophane 8% (W/V), time 3 h): 1,000 or less cfu/mL | MIC of silver ions ([4]; 0.5 to 1% (W/V) of allophane contained): 0.5 µg/mL | MIC of silver ions ([4]; 2% (W/V) of allophane contained): 0.125 µg/mL | MIC of silver ions ([4]; 4% (W/V) of allophane contained): 0.0313 µg/mL | MIC of silver ions ([4]; allophane not contained): about 1 mg/L

O.O.O.O.O.O.O.O=S(=O)([O-])[O-].[Zn+2] [zinc ions, zinc sulfate heptahydrate]
antibacterial property when phosphorus-adsorbing material was mixed [1]: did not improve | MIC decrease relative to no allophane (fraction) [2]: about ⅛ | antibacterial property when phosphorus-adsorbing material was mixed [2]: improved | antibacterial property when phosphorus-adsorbing material was mixed [3]: improved | antibacterial property when phosphorus-adsorbing material was mixed [4]: did not improve
